Data as given in the NIST ThermoML archive (doi:10.1021/je700339f).
± gives the expanded uncertainty stated by the source.

Conditions: Liquid

ClCCCCCl [1,4-dichlorobutane]
mass density [kg/m3]
Conditions | 288.15 K | 298.15 K | 308.15 K | 318.15 K
100 kPa | 1143.7 ± 3.5 | 1133.7 ± 3.4 | 1122.3 ± 3.3 | 1112 ± 3.2
500 kPa | 1144.1 ± 3.5 | 1134 ± 3.4 | 1122.7 ± 3.3 | 1112.4 ± 3.2
1000 kPa | 1144.5 ± 3.5 | 1134.4 ± 3.4 | 1123.1 ± 3.3 | 1112.8 ± 3.2
1500 kPa | 1144.8 ± 3.6 | 1134.8 ± 3.5 | 1123.5 ± 3.4 | 1113.2 ± 3.3
2000 kPa | 1145.2 ± 3.6 | 1135.2 ± 3.5 | 1123.9 ± 3.4 | 1113.7 ± 3.3
2500 kPa | 1145.5 ± 3.6 | 1135.6 ± 3.5 | 1124.3 ± 3.4 | 1114.1 ± 3.3
3000 kPa | 1145.9 ± 3.7 | – | – | –
3100 kPa | – | 1136.1 ± 3.6 | 1124.8 ± 3.5 | 1114.7 ± 3.4
3500 kPa | – | – | – | 1115 ± 3.4
3600 kPa | 1146.4 ± 3.7 | 1136.4 ± 3.6 | 1125.2 ± 3.5 | –
4100 kPa | 1146.7 ± 3.8 | 1136.8 ± 3.7 | 1125.6 ± 3.5 | 1115.5 ± 3.4
4600 kPa | 1147 ± 3.8 | 1137.2 ± 3.7 | 1126 ± 3.6 | 1115.9 ± 3.5
5100 kPa | 1147.4 ± 3.8 | 1137.6 ± 3.7 | 1126.4 ± 3.6 | 1116.3 ± 3.5
5600 kPa | 1147.7 ± 3.9 | 1137.9 ± 3.8 | 1126.9 ± 3.6 | 1116.8 ± 3.5
6100 kPa | 1148.1 ± 3.9 | 1138.4 ± 3.8 | 1127.2 ± 3.7 | 1117.3 ± 3.6
6600 kPa | 1148.5 ± 4 | 1138.7 ± 3.8 | 1127.5 ± 3.7 | 1117.7 ± 3.6
7100 kPa | 1148.9 ± 4 | 1139.1 ± 3.9 | 1128 ± 3.7 | 1118.1 ± 3.6
7600 kPa | 1149.2 ± 4 | 1139.4 ± 3.9 | 1128.4 ± 3.8 | 1118.4 ± 3.7
8100 kPa | 1149.5 ± 4.1 | 1139.8 ± 4 | 1128.8 ± 3.8 | 1118.9 ± 3.7
8600 kPa | 1149.9 ± 4.1 | 1140.2 ± 4 | 1129.2 ± 3.9 | 1119.3 ± 3.7
9200 kPa | 1150.3 ± 4.2 | 1140.6 ± 4 | 1129.6 ± 3.9 | 1119.8 ± 3.8
9600 kPa | 1150.7 ± 4.2 | 1141 ± 4.1 | 1130 ± 3.9 | 1120.2 ± 3.8
10100 kPa | 1151 ± 4.2 | 1141.4 ± 4.1 | 1130.4 ± 4 | 1120.6 ± 3.8
10600 kPa | 1151.3 ± 4.3 | – | 1130.9 ± 4 | 1121 ± 3.9
10700 kPa | – | 1141.8 ± 4.2 | – | –
11100 kPa | 1151.7 ± 4.3 | 1142.1 ± 4.2 | 1131.2 ± 4 | 1121.4 ± 3.9
11600 kPa | 1152 ± 4.4 | 1142.4 ± 4.2 | 1131.5 ± 4.1 | 1121.8 ± 3.9
12100 kPa | 1152.4 ± 4.4 | 1142.8 ± 4.3 | 1131.9 ± 4.1 | 1122.1 ± 4
12600 kPa | 1152.7 ± 4.4 | 1143.2 ± 4.3 | 1132.4 ± 4.1 | 1122.6 ± 4
13000 kPa | – | – | – | 1123 ± 4
13100 kPa | 1153.1 ± 4.5 | 1143.6 ± 4.3 | 1132.6 ± 4.2 | –
13500 kPa | 1153.3 ± 4.5 | – | – | –
13600 kPa | – | 1143.9 ± 4.4 | 1133.1 ± 4.2 | 1123.3 ± 4.1
14100 kPa | – | 1144.2 ± 4.4 | 1133.5 ± 4.2 | –
14200 kPa | 1153.8 ± 4.6 | – | – | 1123.9 ± 4.1
14700 kPa | 1154.1 ± 4.6 | 1144.6 ± 4.5 | 1133.9 ± 4.3 | 1124.4 ± 4.1
15100 kPa | – | – | 1134.2 ± 4.3 | –
15200 kPa | 1154.4 ± 4.6 | 1145 ± 4.5 | – | 1124.7 ± 4.2
15700 kPa | 1154.8 ± 4.7 | 1145.4 ± 4.5 | 1134.6 ± 4.4 | 1125.1 ± 4.2
16200 kPa | – | 1145.8 ± 4.6 | 1135 ± 4.4 | –
16300 kPa | 1155.2 ± 4.7 | – | – | 1125.4 ± 4.3
16700 kPa | – | 1146.1 ± 4.6 | 1135.3 ± 4.4 | –
16800 kPa | 1155.6 ± 4.8 | – | – | 1126 ± 4.3
17200 kPa | – | 1146.5 ± 4.7 | 1135.7 ± 4.5 | –
17300 kPa | 1155.9 ± 4.8 | – | – | 1126.3 ± 4.3
17800 kPa | 1156.2 ± 4.9 | 1146.9 ± 4.7 | 1136.1 ± 4.5 | 1126.5 ± 4.4
18300 kPa | 1156.5 ± 4.9 | 1147.2 ± 4.7 | 1136.5 ± 4.6 | 1127 ± 4.4
18800 kPa | 1156.8 ± 4.9 | 1147.6 ± 4.8 | 1136.8 ± 4.6 | 1127.4 ± 4.4
19100 kPa | 1157.1 ± 5 | – | – | –
19200 kPa | – | 1147.9 ± 4.8 | 1137.2 ± 4.6 | 1127.7 ± 4.5
19700 kPa | 1157.4 ± 5 | 1148.2 ± 4.9 | 1137.6 ± 4.7 | 1128 ± 4.5
20200 kPa | 1157.8 ± 5.1 | 1148.7 ± 4.9 | 1138 ± 4.7 | 1128.4 ± 4.5

ClCCCCCCCl [1,6-dichlorohexane]
mass density [kg/m3]
Conditions | 288.15 K | 298.15 K | 308.15 K | 318.15 K
100 kPa | 1073.7 ± 1.4 | 1063.8 ± 1.4 | 1054.6 ± 1.3 | 1045.1 ± 1.3
500 kPa | 1073.9 ± 1.4 | 1064.2 ± 1.4 | 1054.9 ± 1.3 | 1045.3 ± 1.3
1000 kPa | 1074.3 ± 1.4 | 1064.4 ± 1.4 | 1055.2 ± 1.3 | 1045.7 ± 1.3
1500 kPa | – | 1064.8 ± 1.4 | 1055.5 ± 1.3 | 1046.2 ± 1.3
1600 kPa | 1074.6 ± 1.4 | – | – | –
2000 kPa | 1075 ± 1.5 | 1065.2 ± 1.4 | 1055.9 ± 1.4 | 1046.6 ± 1.3
2500 kPa | 1075.3 ± 1.5 | 1065.5 ± 1.4 | 1056.3 ± 1.4 | 1046.9 ± 1.3
3100 kPa | 1075.7 ± 1.5 | 1065.9 ± 1.4 | 1056.7 ± 1.4 | 1047.4 ± 1.3
3600 kPa | 1076 ± 1.5 | 1066.3 ± 1.4 | 1057.1 ± 1.4 | 1047.8 ± 1.3
4100 kPa | 1076.3 ± 1.5 | 1066.7 ± 1.5 | 1057.4 ± 1.4 | 1048.1 ± 1.3
4500 kPa | – | 1066.9 ± 1.5 | – | –
4600 kPa | 1076.6 ± 1.5 | – | 1057.8 ± 1.4 | 1048.4 ± 1.4
5000 kPa | – | 1067.3 ± 1.5 | – | –
5100 kPa | 1076.9 ± 1.5 | – | 1058.2 ± 1.4 | 1048.9 ± 1.4
5600 kPa | 1077.3 ± 1.6 | 1067.6 ± 1.5 | 1058.5 ± 1.4 | 1049.2 ± 1.4
6100 kPa | 1077.6 ± 1.6 | 1068 ± 1.5 | 1058.9 ± 1.4 | 1049.7 ± 1.4
6500 kPa | 1077.9 ± 1.6 | – | – | –
6600 kPa | – | 1068.4 ± 1.5 | 1059.2 ± 1.5 | 1050 ± 1.4
7100 kPa | 1078.3 ± 1.6 | 1068.7 ± 1.5 | 1059.6 ± 1.5 | 1050.4 ± 1.4
7600 kPa | 1078.5 ± 1.6 | 1069 ± 1.5 | 1059.8 ± 1.5 | 1050.7 ± 1.4
8100 kPa | 1078.9 ± 1.6 | 1069.4 ± 1.6 | 1060.2 ± 1.5 | 1051.2 ± 1.4
8500 kPa | – | – | – | 1051.4 ± 1.4
8600 kPa | 1079.2 ± 1.6 | 1069.7 ± 1.6 | 1060.6 ± 1.5 | –
9100 kPa | 1079.5 ± 1.7 | – | – | 1051.8 ± 1.4
9200 kPa | – | 1070.1 ± 1.6 | 1061 ± 1.5 | –
9600 kPa | 1079.9 ± 1.7 | 1070.4 ± 1.6 | 1061.4 ± 1.5 | 1052.2 ± 1.5
10100 kPa | 1080.2 ± 1.7 | 1070.7 ± 1.6 | 1061.7 ± 1.5 | 1052.6 ± 1.5
10600 kPa | 1080.5 ± 1.7 | 1071.1 ± 1.6 | 1062.1 ± 1.6 | –
10700 kPa | – | – | – | 1053.1 ± 1.5
11000 kPa | – | 1071.3 ± 1.6 | – | –
11100 kPa | 1080.8 ± 1.7 | – | 1062.4 ± 1.6 | 1053.6 ± 1.5
11600 kPa | 1081.2 ± 1.7 | – | 1062.7 ± 1.6 | 1053.9 ± 1.5
11700 kPa | – | 1071.7 ± 1.7 | – | –
12100 kPa | 1081.5 ± 1.8 | 1071.9 ± 1.7 | 1063.1 ± 1.6 | 1054.1 ± 1.5
12600 kPa | 1081.8 ± 1.8 | 1072.3 ± 1.7 | 1063.5 ± 1.6 | 1054.5 ± 1.5
13100 kPa | 1082.1 ± 1.8 | 1072.6 ± 1.7 | 1063.8 ± 1.6 | 1054.8 ± 1.5
13600 kPa | 1082.4 ± 1.8 | 1072.9 ± 1.7 | 1064.1 ± 1.6 | 1055.3 ± 1.6
14100 kPa | – | – | 1064.5 ± 1.6 | –
14200 kPa | 1082.8 ± 1.8 | 1073.3 ± 1.7 | – | 1055.6 ± 1.6
14700 kPa | 1083 ± 1.8 | 1073.6 ± 1.7 | – | 1056 ± 1.6
14800 kPa | – | – | 1064.9 ± 1.7 | –
15100 kPa | – | – | 1065.1 ± 1.7 | –
15200 kPa | 1083.4 ± 1.8 | 1074 ± 1.8 | – | 1056.3 ± 1.6
15600 kPa | – | – | – | 1056.6 ± 1.6
15700 kPa | 1083.7 ± 1.9 | 1074.3 ± 1.8 | 1065.5 ± 1.7 | –
16200 kPa | – | – | 1065.8 ± 1.7 | –
16300 kPa | 1084 ± 1.9 | – | – | 1057.1 ± 1.6
16400 kPa | – | 1074.8 ± 1.8 | – | –
16700 kPa | – | – | 1066.2 ± 1.7 | –
16800 kPa | 1084.3 ± 1.9 | 1075.2 ± 1.8 | – | 1057.3 ± 1.6
17300 kPa | 1084.6 ± 1.9 | 1075.5 ± 1.8 | 1066.6 ± 1.7 | 1057.7 ± 1.6
17800 kPa | 1084.9 ± 1.9 | 1075.8 ± 1.8 | 1066.9 ± 1.7 | 1058 ± 1.7
18300 kPa | 1085.3 ± 1.9 | 1076.1 ± 1.9 | 1067.2 ± 1.8 | 1058.3 ± 1.7
18700 kPa | – | 1076.4 ± 1.9 | 1067.4 ± 1.8 | –
18800 kPa | 1085.5 ± 2 | – | – | –
18900 kPa | – | – | – | 1058.8 ± 1.7
19200 kPa | 1085.7 ± 2 | 1076.7 ± 1.9 | 1067.8 ± 1.8 | 1059 ± 1.7
19700 kPa | 1086 ± 2 | 1076.9 ± 1.9 | 1068 ± 1.8 | 1059.3 ± 1.7
20200 kPa | 1086.5 ± 2 | 1077.3 ± 1.9 | – | 1059.6 ± 1.7
20300 kPa | – | – | 1068.5 ± 1.8 | –
